Source: patent publication US20150344457A1, “METHODS OF INHIBITING PRMT5” (EPIZYME, INC., priority 2012, published 2015)

What was measured:
Z-138 cells [1] = assay: Z-138 Proliferation Assay (Cell Titer Glo, 5 days); assay type: cell-based; settings: Homo sapiens, 120 h, Table A-2, 5 days, top concentration 20 μM
Outline: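 Exponentially growing Z-138 cells (10,000 cells/ml) in RPMI 1640 with 10% FBS are exposed to nine-point 3-fold dilutions (final top concentration 20 μM, 0.2% DMSO) for 5 days at 37° C. Viability is measured as ATP by CellTiter-Glo luminescence. The 50% inhibitory concentration comes from a 4-parameter fit.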

Z-138 cells [2] = assay: Z-138 Methylation Assay (In Cell Western for symmetric di-methyl arginine and DNA content); assay type: cell-based; settings: Homo sapiens, Table A-2, 96 hours, symmetric di-methyl arginine, read-out: ICW EC50
Text: Z-138 suspension cells were purchased from ATCC (American Type Culture Collection, Manassas, Va.). RPMI/Glutamax medium, penicillin-streptomycin, heat inactivated fetal bovine serum, and D-PBS were purchased from Life Technologies, Grand Island, N.Y., USA. Odyssey blocking buffer, 800CW goat anti-rabbit IgG (H+L) antibody, and Licor Odyssey infrared scanner were purchased from Licor Biosciences, Lincoln, Nebr., USA. Symmetric di-methyl arginine antibody was purchased from EMD Millipore, Billerica, Mass., USA. 16% Paraformaldehyde was purchased from Electron Microscopy Sciences, Hatfield, Pa., USA.
Z-138 suspension cells were maintained in growth medium (RPMI 1640 supplemented with 10% v/v heat inactivated fetal bovine serum and 100 units/mL penicillin-streptomycin) and cultured at 37° C. under 5% CO2.
Cell Treatment, in Cell Western (ICW) for Detection of Symmetric Di-Methyl Arginine and DNA Content.
Z-138 cells were seeded in assay medium at a concentration of 50,000 cells per mL to a 384-well cell culture plate with 50 μL per well. Compound (100 nL) from 384 well source plates was added directly to 384 well cell plate. Plates were incubated at 37° C., 5% CO2 for 96 hours. After four days of incubation, 40 μL of cells from incubated plates were added to poly-D-lysine coated 384 well culture plates (BD Biosciences 356697). Plates were incubated at room temperature for 30 minutes then incubated at 37° C., 5% CO2 for 5 hours. After the incubation, 40 μL per well of 8% paraformaldehyde in PBS (16% paraformaldahyde was diluted to 8% in PBS) was added to each plate and incubated for 30 minutes. Plates were transferred to a Biotek 405 plate washer and washed 5 times with 100 μL per well of wash buffer (1×PBS with 0.1% Triton X-100 (v/v)). Next 30 μL per well of Odyssey blocking buffer were added to each plate and incubated 1 hour at room temperature. Blocking buffer was removed and 20 μL per well of primary antibody was added (symmetric di-methyl arginine diluted 1:100 in Odyssey buffer with 0.1% Tween 20 (v/v)) and plates were incubated overnight (16 hours) at 4° C. Plates were washed 5 times with 100 μL per well of wash buffer. Next 20 μL per well of secondary antibody was added (1:200 800CW goat anti-rabbit IgG (H+L) antibody, 1:1000 DRAQS (Biostatus limited) in Odyssey buffer with 0.1% Tween 20 (v/v)) and incubated for 1 hour at room temperature. The plates were washed 5 times with 100 μL per well wash buffer then 1 time with 100 μL per well of water. Plates were allowed to dry at room temperature then imaged on the Licor Odyssey machine which measures integrated intensity at 700 nm and 800 nm wavelengths. Both 700 and 800 channels were scanned.
First, the ratio for each well was determined by:
Each plate included fourteen control wells of DMSO only treatment (minimum inhibition) as well as fourteen control wells for maximum inhibition treated with 3 μM of a reference compound (Background wells). The average of the ratio values for each control type was calculated and used to determine the percent inhibition for each test well in the plate. Reference compound was serially diluted three-fold in DMSO for a total of nine test concentrations, beginning at 3 μM. Percent inhibition was determined and IC50 curves were generated using triplicate wells per concentration of compound.

Structure (SMILES)	EC50 (Z-138 cells [1]) [µM]	EC50 (Z-138 cells [2]) [µM]
O=C(COc1cccc2cccnc12)NCC(O)CN1CCc2ccccc2C1 (stereo not shown) [Compound A6]	0.101 to 1	< 0.1
O=C(COc1cccc(F)c1)NCC(O)CN1CCc2ccccc2C1 (stereo not shown) [Compound A7]	10 to 50	0.101 to 1
N#Cc1cccc(OCC(=O)NCC(O)CN2CCc3ccccc3C2)c1 (stereo not shown) [Compound A8]	10 to 50	0.101 to 1
Cc1ccc(OCC(=O)NCC(O)CN2CCc3ccccc3C2)cc1 (stereo not shown) [Compound A9]	10 to 50	10 to 50
N#Cc1ccc(OCC(=O)NCC(O)CN2CCc3ccccc3C2)cc1 (stereo not shown) [Compound A11]	10 to 50	0.101 to 1
COc1ccc(OCC(=O)NCC(O)CN2CCc3ccccc3C2)cc1 (stereo not shown) [Compound A12]	10 to 50	0.101 to 1
Cc1ccccc1OCC(=O)NCC(O)CN1CCc2ccccc2C1 (stereo not shown) [Compound A15]	1 to 10	0.101 to 1
O=C(COc1ccccc1F)NCC(O)CN1CCc2ccccc2C1 (stereo not shown) [Compound A16]	10 to 50	0.101 to 1
N#Cc1ccccc1OCC(=O)NCC(O)CN1CCc2ccccc2C1 (stereo not shown) [Compound A17]	10 to 50	0.101 to 1
O=C(CNc1ccccc1)NCC(O)CN1CCc2ccccc2C1 (stereo not shown) [Compound A18]	> 20	1 to 10
CC(Oc1ccccc1)C(=O)NCC(O)CN1CCc2ccccc2C1 (stereo not shown) [Compound A19]	1 to 10	0.101 to 1
COc1cccc(OCC(=O)NCC(O)CN2CCc3ccccc3C2)c1 (stereo not shown) [Compound A20]	1 to 10	0.101 to 1
CC(=O)Nc1ccc(OCC(=O)NCC(O)CN2CCc3ccccc3C2)cc1 (stereo not shown) [Compound A21]	> 20	0.101 to 1
COc1ccccc1OCC(=O)NCC(O)CN1CCc2ccccc2C1 (stereo not shown) [Compound A22]	1 to 10	0.101 to 1
Cn1ncc2ccc(OCC(=O)NCC(O)CN3CCc4ccccc4C3)cc21 (stereo not shown) [Compound A23]	1 to 10	0.101 to 1
Cc1cccc(OCC(=O)NCC(O)CN2CCc3ccccc3C2)c1 (stereo not shown) [Compound A26]	1 to 10	0.101 to 1
CN(C)c1cccc(OCC(=O)NCC(O)CN2CCc3ccccc3C2)c1 (stereo not shown) [Compound A27]	1 to 10	0.101 to 1
CS(=O)(=O)Nc1cccc(OCC(=O)NCC(O)CN2CCc3ccccc3C2)c1 (stereo not shown) [Compound A28]	1 to 10	0.101 to 1
NC(=O)c1ccccc1OCC(=O)NCC(O)CN1CCc2ccccc2C1 (stereo not shown) [Compound A29]	> 20	0.101 to 1
CC(=O)Nc1cccc(OCC(=O)NCC(O)CN2CCc3ccccc3C2)c1 (stereo not shown) [Compound A31]	10 to 50	0.101 to 1
O=C(COc1ccccc1)NC[C@H](O)CN1CCc2ccccc2C1 [Compound A32]	10 to 50	0.101 to 1
NC(=O)c1cccc(OCC(=O)NCC(O)CN2CCc3ccccc3C2)c1 (stereo not shown) [Compound A34]	10 to 50	0.101 to 1
CN(C)c1ccc(OCC(=O)NCC(O)CN2CCc3ccccc3C2)cc1 (stereo not shown) [Compound A35]	10 to 50	0.101 to 1
CC(=O)Nc1ccccc1OCC(=O)NCC(O)CN1CCc2ccccc2C1 (stereo not shown) [Compound A36]	> 20	0.101 to 1

Structure (SMILES)	EC50 (Z-138 cells [1]) [µM]	EC50 (Z-138 cells [2]) [µM]
CS(=O)(=O)c1ccccc1OCC(=O)NCC(O)CN1CCc2ccccc2C1 (stereo not shown) [Compound A37]	1 to 10	< 0.1
CN(C)c1ccccc1OCC(=O)NCC(O)CN1CCc2ccccc2C1 (stereo not shown) [Compound A38]	1 to 10	< 0.1
CC(Oc1cccc2cccnc12)C(=O)NCC(O)CN1CCc2ccccc2C1 (stereo not shown) [Compound A39]	0.101 to 1	< 0.1
O=C(COc1ccccc1C1CCCCC1)NCC(O)CN1CCc2ccccc2C1 (stereo not shown) [Compound A40]	1 to 10	0.101 to 1
CS(=O)(=O)Nc1ccc(OCC(=O)NCC(O)CN2CCc3ccccc3C2)cc1 (stereo not shown) [Compound A42]	> 20	0.101 to 1
CC(C)(Oc1cccc2cccnc12)C(=O)NCC(O)CN1CCc2ccccc2C1 (stereo not shown) [Compound A43]	1 to 10	0.101 to 1
O=C(COc1cccc2cccnc12)NC[C@H](O)CN1CCc2ccccc2C1 [Compound A44]	10 to 50	0.101 to 1
O=C(COc1cccc2cccnc12)NC[C@@H](O)CN1CCc2ccccc2C1 [Compound A45]	0.101 to 1	< 0.1
Cn1cnc2cc(OCC(=O)NCC(O)CN3CCc4ccccc4C3)ccc21 (stereo not shown) [Compound A46]	10 to 50	0.101 to 1
CS(=O)(=O)c1cccc(OCC(=O)NCC(O)CN2CCc3ccccc3C2)c1 (stereo not shown) [Compound A47]	1 to 10	0.101 to 1
O=C(COc1cccc2ccc(N3CCOCC3)nc12)NCC(O)CN1CCc2ccccc2C1 (stereo not shown) [Compound A48]	10 to 50	0.101 to 1
O=C(COc1ccccc1N1CCOCC1)NCC(O)CN1CCc2ccccc2C1 (stereo not shown) [Compound A49]	1 to 10	0.101 to 1
O=C(COc1ccccc1-c1cc[nH]n1)NCC(O)CN1CCc2ccccc2C1 (stereo not shown) [Compound A50]	1 to 10	< 0.1
CS(=O)(=O)Nc1ccccc1OCC(=O)NCC(O)CN1CCc2ccccc2C1 (stereo not shown) [Compound A53]	1 to 10	0.101 to 1
O=C(COc1cccc2c1CCCC2)NCC(O)CN1CCc2ccccc2C1 (stereo not shown) [Compound A64]	1 to 10	0.101 to 1
NS(=O)(=O)c1ccccc1OCC(=O)NCC(O)CN1CCc2ccccc2C1 (stereo not shown) [Compound A65]	1 to 10	0.101 to 1
O=C(COc1cccc2ccccc12)NCC(O)CN1CCc2ccccc2C1 (stereo not shown) [Compound A66]	1 to 10	0.101 to 1
O=C(COc1ccccc1-c1cc[nH]n1)NC[C@@H](O)CN1CCc2ccccc2C1 [Compound A67]	1 to 10	< 0.1
O=C(COc1ccccc1-c1cc[nH]n1)NC[C@H](O)CN1CCc2ccccc2C1 [Compound A68]	> 20	0.101 to 1
O=C(COc1ccc2ncn(C3CCNCC3)c2c1)NCC(O)CN1CCc2ccccc2C1 (stereo not shown) [Compound A70]	> 20	0.101 to 1
CN1CCC(n2cnc3ccc(OCC(=O)NCC(O)CN4CCc5ccccc5C4)cc32)CC1 (stereo not shown) [Compound A71]	> 20	0.101 to 1
C[C@@H](Oc1cccc2cccnc12)C(=O)NC[C@H](O)CN1CCc2ccccc2C1 [Compound A73]	0.101 to 1	< 0.1
C[C@@H](Oc1cccc2cccnc12)C(=O)NC[C@@H](O)CN1CCc2ccccc2C1 [Compound A74]	1 to 10	0.101 to 1
